Columns and labels:
Type in all cases: in vivo
[1] = test system: Mammary Adenocarcinoma 16/C/RP; assay: antitumor activity in mice against Mammary Adenocarcinoma 16/C/RP
Protocol: (§1) Representative examples of the invention were tested for antitumor activity in mice according to the following procedure:
(§2) The animals were pooled, implanted subcutaneously with 30 to 60 mg tumor fragments by 12-gauge trocar, and again pooled before unselective distribution to the various treatment and control groups. For early-stage treatment, chemotherapy was started within 1 to 5 days after tumor implantation while the number of cells was relatively small (10^7 to 10^8 cells). For advanced-stage treatment, chemotherapy was delayed until the tumor became relatively large (200 to 300 mg in size). A 300-mg tumor contains approximately 3×10^8 total cells. Tumors within a given advanced-stage trial were within a 2.5-fold size range for 90% of the animals. Tumors were measured with a caliper weekly (or twice weekly for the more rapidly growing tumors). Mice were sacrificed when their tumors reached 1500 mg (i.e., before they can cause the animal discomfort). Tumor weights were estimated from two-dimensional measurements.
(§3) The treatment and control groups were measured when the control group tumors reached approximately 700 to 1200 mg in size (Median of Group). The median tumor weight of each group was determined (including zeros). The T/C value (weight of treated tumors over the weight of control tumors) in percent is an indication of antitumor effectiveness: A T/C equal to or less than 42% is considered significant antitumor activity by the Drug Evaluation Branch of the Division of Cancer Treatment (NCl). A T/C value <10% is considered to indicate highly significant antitumor activity. A body weight loss nadir (mean of group) of greater than 20% or greater than 20% drug-deaths is considered to indicate an excessively toxic dosage.

[2] = test system: pancreatic ductal adenocarcinoma #03; assay: antitumor activity in mice against pancreatic ductal adenocarcinoma #03 (Panc 03); conditions: for Tumor Free: 245 days of observation
Protocol: as §1
as §2, with “Tumors within a given advanced-stage trial were within a 2.5-fold size range for 90% of the animals.” left out
(§4) The treatment and control groups were measured when the control group tumors reached approximately 700 to 1200 mg in size (Median of Group). The median tumor weight of each group was determined (including zeros). […] A T/C value <10% is considered to indicate highly significant antitumor activity.
(§5) The results are shown in Table I for pancreatic ductal adenocarcinoma #03 and in Table 2 for colon adenocarcinoma #38.

[3] = test system: P388/adriamycin resistant leukemia; assay: P388/adriamycin resistant leukemia, cells implanted i.v.
[4] = test system: colon adenocarcinoma #38; assay: antitumor activity in mice against colon adenocarcinoma #38
Protocol: as §1
as §2, with “Tumors within a given advanced-stage trial were within a 2.5-fold size range for 90% of the animals.” left out
as §4, §5

[5] = test system: Human MX-1 Mammary; assay: antitumor activity in mice against Human MX-1 Mammary; conditions: i.v. days 1-6 (some changed to p.o.)
Protocol: as §1, §2, §3

[6] = test system: Mammary 16/C; assay: antitumor activity in mice against Mammary 16/C; conditions: for Tumor Free: 23 days of observation
Protocol: as §1
as §2, with “Tumors within a given advanced-stage trial were within a 2.5-fold size range for 90% of the animals.” left out
as §4

[7] = test system: Colon 51/A; assay: antitumor activity in mice against Colon 51/A; conditions: i.v. bolus days 3-6, 9, 11
Protocol: as §1
as §2, with “Tumors within a given advanced-stage trial were within a 2.5-fold size range for 90% of the animals.” left out
as §4

[8] = test system: Panc 02; assay: antitumor activity in mice against Panc 02; conditions: i.v. bolus days 1-4; for Tumor Free: 28 days of observation
Protocol: as §1, §2, §3

[9] = 400 mg/kg total, i.v. infusion days 1, 4
[10] = 600 mg/kg total, i.v. infusion days 1, 4
[11] = 900 mg/kg total, i.v. infusion days 1, 4
[12] = Table 1, average body weight 25 g, total doses as in E1
[13] = 10^6 cells, 280 mg/kg total, i.v. 3 hour infusion day 1
[14] = 10^6 cells, 450 mg/kg total, i.v. 3 hour infusion day 1
[15] = 147 mg/kg total, i.v. days 3-7 (some changed to p.o.)
[16] = 220 mg/kg total, i.v. days 3-7 (some changed to p.o.)
[17] = 330 mg/kg total, i.v. days 3-7 (some changed to p.o.)
[18] = 161 mg/kg total, i.v. days 1-4 (some changed to p.o.)
[19] = 242 mg/kg total, i.v. days 1-4 (some changed to p.o.)
[20] = 363 mg/kg total, i.v. days 1-4 (some changed to p.o.)
[21] = 155 mg/kg total, i.v. days 3-6 (some changed to p.o.)
[22] = 240 mg/kg total, i.v. days 3-6 (some changed to p.o.)
[23] = 420 mg/kg total, i.v. days 3-6 (some changed to p.o.)
[24] = 51 mg/kg total, i.v. bolus days 6-9
[25] = 82 mg/kg total, i.v. bolus days 6-9
[26] = Table 2, i.v., total dose mg/kg by Example: 6:82, 16(a):690, 18(e):120
[27] = 51 mg/kg total, i.v. bolus days 1-4
[28] = 82 mg/kg total, i.v. bolus days 1-4
[29] = 79 mg/kg total, i.v. bolus days 3-4, 6-14
[30] = 124 mg/kg total, i.v. bolus days 3-4, 6-14
[31] = 10^6 cells, 112 mg/kg total, i.v.→p.o. days 1, 4
[32] = 10^6 cells, 248 mg/kg total, i.v.→p.o. days 1, 4

## CCN(CC)CCNc1ccc(CNC)c2sc3ccc(OC)cc3c(=O)c12 [Example 30(h), 1-[[2-(Diethylamino)ethyl]amino]-4-[(methylamino)methyl]-7-methoxy-thioxanthen-9-one]
[1]; [9]
  Drug Deaths: 0/5
  T/C Value: 46%
  Wt. Loss at Nadir: -1.0 g/mouse
[1]; [10]
  Drug Deaths: 0/5
  T/C Value: 23%
  Wt. Loss at Nadir: -0.7 g/mouse
[1]; [11]
  Drug Deaths: 1/6
  T/C Value: 29%
  Wt. Loss at Nadir: 0 g/mouse
[2]
  T/C: 0%
[2]; [12]
  Weight Loss: 1.4 g
[2]; Table 1, total doses as in E1
  Drug Deaths: 0
[3]; [13]
  Drug Deaths: 0/7
  Wt. Loss at Nadir: -1.7 g/mouse
[3]; [14]
  Drug Deaths: 0/7
  Wt. Loss at Nadir: -2.3 g/mouse
[3]; iv, 280 mg/kg
  % ILS (percentage increase in lifespan): 69%
  Log10 Tumor cell kill: 6.0
  Tumor Cell: 2/7
[3]; iv, 450 mg/kg
  % ILS (percentage increase in lifespan): 62%
  Log10 Tumor cell kill: 5.3
  Tumor Cell: 0/7

## CCN(CC)CCNc1ccc(CNC(=O)OC)c2sc3ccc(OC)cc3c(=O)c12 [Example 36]
[4]; [15]
  Drug Deaths: 0
  T/C Value: 0%
  Wt. Loss at Nadir: 0 g/mouse
[4]; [16]
  Drug Deaths: 0
  T/C Value: 0%
  Wt. Loss at Nadir: -0.8 g/mouse
[4]; [17]
  Drug Deaths: 0
  T/C Value: 0%
  Wt. Loss at Nadir: -3.2 g/mouse
[5]; 132 mg/kg total
  Drug Deaths: 0
  T/C Value: 27%
  Wt. Loss at Nadir: -0.8 g/mouse
[5]; 297 mg/kg total
  Drug Deaths: 0
  T/C Value: 39%
  Wt. Loss at Nadir: -2.4 g/mouse
[6]; [18]
  Drug Deaths: 0
  T/C Value: 9%
  Wt. Loss at Nadir: -0.4 g/mouse
[6]; [19]
  Drug Deaths: 1/5
  T/C Value: 8%
  Wt. Loss at Nadir: -1.2 g/mouse
[6]; [20]
  Drug Deaths: 2/5
  T/C Value: 2%
  Wt. Loss at Nadir: -2.4 g/mouse
[2]; [21]
  Drug Deaths: 0
  T/C Value: 0%
  Wt. Loss at Nadir: -0.4 g/mouse
[2]; [22]
  Drug Deaths: 0
  T/C Value: 0%
  Wt. Loss at Nadir: -0.4 g/mouse
[2]; [23]
  Drug Deaths: 3/5
  T/C Value: 0%
  Wt. Loss at Nadir: -5.6 g/mouse
[2]; [12]
  Weight Loss: 0.4 g
[2]; Table 1, total doses as in E1
  Drug Deaths: 0

## CCN(CC)CCNc1ccc(CNS(C)(=O)=O)c2sc3ccccc3c(=O)c12 [Example 6, N-[[1-[[2-(Diethylamino)ethyl]amino]-9-oxothioxanthen4-yl]methyl]methanesulfonamide]
[4]; [24]
  T/C Value: 18%
  Wt. Loss at Nadir: -1.2 g/mouse
[4]; [25]
  T/C Value: 1%
  Wt. Loss at Nadir: -1.7 g/mouse
[4]; Table 2, i.v., total dose mg/kg by Example: 2:600, 5:960, 6:132, 7:840, 16(a):1000, 18(e):180
  Drug Deaths: 3/7
[4]; [26]
  Drug Deaths: 1/7
  Weight Loss: 1.7 g
[4]; mouse, in vivo, iv
  Weight Loss: 5.0 g
[7]; 66 mg/kg total
  T/C Value: 28%
  Wt. Loss at Nadir: -2.3 g/mouse
[7]; 96 mg/kg total
  T/C Value: 14%
  Wt. Loss at Nadir: -3.0 g/mouse
[6]; [27]
  T/C Value: 13%
  Wt. Loss at Nadir: -1.2 g/mouse
  Tumor Free: 0/5
[6]; [28]
  T/C Value: 6%
  Wt. Loss at Nadir: -3.0 g/mouse
  Tumor Free: 0/5
[2]; [29]
  T/C Value: 0%
  Wt. Loss at Nadir: -1.0 g/mouse
  Tumor Free: 1/5
[2]; [30]
  T/C Value: 0%
  Wt. Loss at Nadir: -1.6 g/mouse
  Tumor Free: 3/5
[2]; [12]
  Weight Loss: 1.6 g
[2]; Table 1, total doses as in E1
  Drug Deaths: 0
[8]; 51 mg/kg total
  T/C Value: 42%
  Wt. Loss at Nadir: -1.2 g/mouse
  Tumor Free: 0/5
[8]; 82 mg/kg total
  T/C Value: 23%
  Wt. Loss at Nadir: -2.0 g/mouse
  Tumor Free: 0/5

## CCN(CC)CCNc1ccc(CNS(C)(=O)=O)c2sc3ccc(OC)cc3c(=O)c12 [31(c)]
[1]; 109.6 mg/kg total, i.v. 2X/day, days 3-6
  T/C Value: 6%
[1]; 156.8 mg/kg total, i.v. 2X/day, days 3-6
  T/C Value: 5%
[1]; 224 mg/kg total, i.v. 2X/day, days 3-6
  T/C Value: 0%
[1]; mouse, in vivo
  Drug Deaths: 0
[2]
  T/C: 0%
[2]; Table 1, total doses as in E1
  Drug Deaths: 0
[2]; mouse, in vivo
  Weight Loss: 5.6 g
[3]; [31]
  % ILS (percentage increase in lifespan): 0%
  Log10 Tumor cell kill: 0
  Wt. Loss at Nadir: -2.7 g/mouse
[3]; [32]
  % ILS (percentage increase in lifespan): 0%
  Log10 Tumor cell kill: 0
  Wt. Loss at Nadir: -3.0 g/mouse
[3]; mouse, in vivo, 112 mg/kg
  Drug Deaths: 0/6
[3]; mouse, in vivo, 248 mg/kg
  Drug Deaths: 1/6
